“Also recorded” adds a separate entry of the source.
What was measured:
Type in all cases: cell-based
22Rv1 cells = test: Prostate cancer cell line growth inhibition assay, 22Rv1; conditions: Homo sapiens, 22Rv1, 72 h; read-out: AR positive 22Rv1 GI50
Experimental: Prostate Cancer Cell Line Growth Inhibition Assays: The PC-3, DU-145, LNCaP, C4-2, and 22Rv1 PC cell line growth inhibition assays have been described previously (Fancher et al., Assay Drug Dev Technol. 2016, 14:453-477; Fancher et al., Assay Drug Dev Technol. 2019, 17:364-386). On day 1, each PC cell line was harvested, counted, and seeded into two 384-well assay plates, a time zero (T0) and a time 72 h (T72) plate. PC cell lines were all seeded at 1,000 cells per well in 45 μL of tissue culture media in uncoated white clear bottom 384-well assay plates (VWR, #82050-076) using a Matrix electronic multichannel pipette (Thermo Fisher Scientific, Waltham, MA) and cultured overnight at 37° C., 5% CO2, and 95% humidity. On day 2, 25 μL of the CellTiter-Glo® (CTG) (Promega Corporation, Madison, WI) detection reagent was dispensed into the wells of the TO assay plate using a Matrix electronic multichannel pipette, and the RLUs were captured on the SpectraMax® M5e (Molecular Devices LLC, Sunnyvale, CA) microtiter plate reader. Also on day 2, 5 μL of compounds were transferred into the test wells of the T72 384-well assay plates which were returned to the incubator for 72 h. Control wells received DMSO alone. On day 5, 25 μL of the CTG detection reagent was dispensed into the wells of the T72 assay plate using a Matrix electronic multichannel pipette, and the RLU's were captured on the SpectraMax® M5e microtiter plate reader platform.
For the 96-well AR-LBD H^3-DHT radioligand binding assay, eight minimum and maximum plate control wells were utilized to normalize the data. […] To normalize the 72 h compound exposure PC growth inhibition data, the signals from the compound treated wells were processed and expressed as % of the T72 DMSO plate controls. IC50 and GI50 values for each of the bioassays were calculated using GraphPad Prism 9 software to plot and fit data to curves using the Sigmoidal dose response variable slope equation Y=Bottom+[Top-Bottom]/[1+10^(Log EC50−X)*HillSlope].

TIF2 = biological target: T1, TIF2 (Homo sapiens, UniProt Q15596); test: Western blotting cellular thermal shift assay for TIF2 in C4-2 cells; conditions: 20 μM, TIF2 western blots
T1 construct: endogenous in cells; host or cells: C4-2 castration resistant prostate cancer cells
T1 sequence (Q15596 whole entry): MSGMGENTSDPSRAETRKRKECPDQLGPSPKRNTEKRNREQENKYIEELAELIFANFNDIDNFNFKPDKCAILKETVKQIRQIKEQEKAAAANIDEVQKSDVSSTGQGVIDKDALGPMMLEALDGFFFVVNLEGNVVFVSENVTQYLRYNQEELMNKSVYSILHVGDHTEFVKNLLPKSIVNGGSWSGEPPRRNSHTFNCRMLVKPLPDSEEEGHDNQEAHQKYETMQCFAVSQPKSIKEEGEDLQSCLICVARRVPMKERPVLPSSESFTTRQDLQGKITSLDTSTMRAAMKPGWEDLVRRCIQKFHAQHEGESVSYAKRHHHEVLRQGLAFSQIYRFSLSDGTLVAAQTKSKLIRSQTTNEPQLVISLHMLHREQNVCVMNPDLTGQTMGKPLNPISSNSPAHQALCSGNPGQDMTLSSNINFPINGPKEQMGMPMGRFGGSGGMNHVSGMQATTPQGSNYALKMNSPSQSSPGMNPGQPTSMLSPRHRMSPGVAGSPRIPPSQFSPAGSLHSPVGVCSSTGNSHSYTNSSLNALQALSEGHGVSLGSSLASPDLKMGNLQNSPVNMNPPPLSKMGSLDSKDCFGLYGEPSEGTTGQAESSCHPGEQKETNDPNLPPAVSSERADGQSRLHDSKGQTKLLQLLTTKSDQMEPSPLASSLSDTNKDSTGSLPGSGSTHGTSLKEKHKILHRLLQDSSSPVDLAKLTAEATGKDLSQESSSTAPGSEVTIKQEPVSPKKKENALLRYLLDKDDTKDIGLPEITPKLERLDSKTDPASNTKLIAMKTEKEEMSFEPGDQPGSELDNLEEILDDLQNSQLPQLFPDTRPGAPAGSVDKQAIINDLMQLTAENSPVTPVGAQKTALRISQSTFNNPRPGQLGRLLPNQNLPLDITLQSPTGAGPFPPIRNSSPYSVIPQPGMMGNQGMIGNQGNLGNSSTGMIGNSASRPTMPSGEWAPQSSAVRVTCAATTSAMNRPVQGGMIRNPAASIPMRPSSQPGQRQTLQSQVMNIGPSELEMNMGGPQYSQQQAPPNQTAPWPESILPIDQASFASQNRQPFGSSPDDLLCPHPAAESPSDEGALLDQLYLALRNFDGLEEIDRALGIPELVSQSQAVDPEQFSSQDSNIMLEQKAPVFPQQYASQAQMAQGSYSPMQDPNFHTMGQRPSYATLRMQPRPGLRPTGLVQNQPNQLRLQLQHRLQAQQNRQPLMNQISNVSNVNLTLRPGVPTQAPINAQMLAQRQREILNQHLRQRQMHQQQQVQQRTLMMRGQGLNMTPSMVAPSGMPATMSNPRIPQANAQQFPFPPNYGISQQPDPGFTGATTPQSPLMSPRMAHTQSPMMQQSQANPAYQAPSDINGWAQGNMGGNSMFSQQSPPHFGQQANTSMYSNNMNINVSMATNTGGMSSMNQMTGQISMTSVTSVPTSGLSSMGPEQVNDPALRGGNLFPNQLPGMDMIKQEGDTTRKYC
Experimental: Western Blotting Cellular Thermal Shift Assays for TIF2 and AR Target Engagement in C4-2 Cells: C4-2 cells were harvested by trypsinization, washed 1× by centrifugation at 270×g for 5 min and resuspension in PBS, counted, centrifugated at 270× g for 5 min and resuspended at 7×10^6 cells per mL in Opti-MEM medium (Gibco, Gaithersburg, MD). 50 μL of C4-2 cell suspension (3.5×10^5 cells) were then transferred to PCR tubes that were placed in a T-100 thermocycler (BioRad, Hercules, CA) and a 2° C. interval temperature step gradient from 37° C. to 53° C. was applied. Cells were maintained at each step of the temperature gradient for 5 min and then tubes were withdrawn and placed on ice. 50 μL of cell lysis buffer, 500 mM NaCl, 1% NP-40, 1× protease inhibitor cocktail in PBS were added to the heat shocked cell suspensions in PCR tubes and placed on ice for an additional 30 min. Cell lysates were then centrifuged at 14,000 RPM (18,800×g) at 4° C. for 15 min and supernatants were transferred to new tubes and protein concentrations were determined in a bicinchoninic acid (BCA) assay. 45 μL of cell lysis supernatants were mixed with 15 μL of 5×SDS-PAGE sample buffer and placed in a heat block at 100° C. for 5 min. The protein constituents of heat shocked C4-2 cell lysis supernatants were separated by SDS-PAGE on 8% separating gels, transferred to nitrocellulose membranes that were blocked for 1 h at room temperature in 5% non-fat milk in TBST, and then probed overnight at 4° C. with a 1:1000 dilution of either rabbit anti-AR (Cell Signaling, Danvers, MA) or rabbit anti-TIF2 (Bethyl Laboratories, Waltham, MA) primary antibodies in TBST containing 5% non-fat milk. Membranes were then washed 3× in TBST buffer for 10 min, then incubated with a 1:10,000 dilution of the goat anti-rabbit IgG HRP conjugated secondary antibody (Invitrogen, Carlsbad, CA) in TBST containing 5% non-fat milk for 1 h at room temperature. Western blots were then washed 3× in TBST buffer and developed with Pierce ECL western blotting substrate. Images of ECL western blots were acquired on an iBright™ 1500 imaging system and quantified using the iBright™ image analysis software.

[1] = test system: PSA expression in C4-2 cells; test: Western blot of PSA expression in C4-2 cells; conditions: C4-2 cells, hits 20 μM (enzalutamide 25 μM) 3 h, ±10 nM DHT 24 h
Experimental: Cell lysate protein concentrations were determined in a bicinchoninic acid (BCA) assay. Equal amounts of cell protein were mixed with SDS-PAGE sample buffer and placed in a heat block at 100° C. for 5 min. The protein constituents of C4-2 cells were separated by SDS-PAGE on 10% separating gels, transferred to nitrocellulose membranes and western blots were probed overnight at 4° C. with a 1:1000 dilution of a rabbit anti-hPSA (Cell Signaling, Danvers, MA) primary antibody in Tris-buffered saline (TBS) Tween 20 (TBST) containing 5% non-fat milk. Membranes were washed 3× in TBST for 10 min, then incubated for 1 h at room temperature with a 1:10,000 dilution of the goat anti-rabbit IgG horse radish peroxidase (HRP) conjugated secondary antibody (Invitrogen, Carlsbad, CA) in TBST containing 5% non-fat milk. Western blots were then washed 3× in TBST and developed with Pierce enhanced chemiluminescence (ECL) western blotting substrate (Thermo Fisher Scientific, Waltham, MA). Images of western blot ECL bands were acquired on an iBright™ 1500 imaging system (Thermo Fisher Scientific, Waltham, MA) and quantified by iBright™ image analysis software.

| GI50 (22Rv1 cells) | TIF2 thermal stability at 46° C. (TIF2; listed as 6) | SMILES | TIF2 thermal stability at 46° C. (TIF2) | Endogenous and DHT-enhanced PSA expression [1] |
| --- | --- | --- | --- | --- |
| 42.5 µM | – | Cc1ccccc1-c1cc(O)c2c(c1)CN(c1nc(C(N)=O)cs1)CCO2 [Compound S1-1] | did not enhance TIF2 thermal stability; also recorded: do not enhance TIF2 thermal stability | substantially reduced; also recorded: inhibition |
| 17.9 µM | did not enhance TIF2 stability | Cc1nsc(NC(=O)N2CCC(Sc3ccccc3C)CC2)n1 [Compound S2-6] | did not enhance TIF2 thermal stability; also recorded: do not enhance TIF2 thermal stability | substantially reduced; also recorded: inhibition |
| 13.2 µM | – | Cc1c(-c2ccccc2F)[nH]c2ccc(CNC(=O)CCc3cn[nH]c3)cc12 [Compound S3-11] | did not enhance TIF2 thermal stability; also recorded: do not enhance TIF2 thermal stability | substantially reduced; also recorded: inhibition |

Source: US20260083751A1, “ALLOSTERIC MODULATORS OF ANDROGEN RECEPTOR COACTIVATOR RECRUITMENT FOR CRPC THERAPY” (University of Pittsburgh – Of the Commonwealth System of …, priority 2022, published 2026)
